The results in this text go back to publication PMC11121495, “Blap-6, a Novel Antifungal Peptide from the Chinese Medicinal Beetle Blaps rhynchopetera against Cryptococcus neoformans” (International Journal of Molecular Sciences, 2024).

In brackets after ≈: the same amount, converted by molar mass. Read-outs that look alike come from different tables or passages of the source. Where no end group is shown, it is not given here.

The subject of one assay is C. albicans. Put plainly: microbe, parasite or virus in culture. It counts as cell-based, Candida albicans (ATCC 10231). The text has this:
(§1) These standard strains of Escherichia coli (E. coli, ATCC 8739), Staphylococcus aureus (S. aureus, ATCC 6538), Pseudomonas aeruginosa (P. aeruginosa, ATCC 27853), Acinetobacter baumannii (A. baumannii, ATCC 1968), Candida albicans (ATCC 10231), and the clinical strain of Methicillin-resistant Staphylococcus aureus (MRSA, MRSA-Z) were obtained from Kunming Medical University. The standard strain of C. neoformans (ATCC 32045) was purchased from Shanghai Yingxin Laboratory Co., Ltd. (CAS NO. YXJ50058). Different strains of E. coli, S. aureus, MRSA, P. aeruginosa, and A. baumannii were cultured with shaking at 37 °C in Luria–Bertani (LB) medium. C. neoformans was cultured at 35 °C in Sabouraud Dextrose Agar (SDA) medium according to the manufacturer’s instructions.
(§2) According to Clinical and Laboratory Standards Institute (CLSI) protocols, the minimum inhibitory concentration (MIC) is the minimum drug concentration at which antibiotics inhibit the growth and reproduction of strains. The different strains were grown in their corresponding media at 35 °C or 37 °C until they entered the exponential growth phase. Fluconazole and amphotericin B were used as positive controls, and sterile 0.9% NaCl was used as a negative control. The peptides were diluted to various concentrations in sterile saline. According to 1 OD = 1 × 10^9 CFU/mL, the above bacterial solution was diluted to 2 × 10^5 CFU/mL with the corresponding medium. In advance, 100 μL of normal saline was added to a sterile 96-well plate, and 200 μL of the sample to be tested was added to the first well. The sample to be tested was subjected to double gradient dilution, and then 100 μL of bacterial solution with a concentration of 2 × 10^5 was added to each well. It was cultured at 35 °C or 37 °C for different times. The light absorption value of the bacterial solution at 600 nm was detected by a microplate reader (Epoch Etock, Biotek, Winooski, VT, USA), and the average concentration of the samples in the pores and adjacent pores that could not detect microbial growth was used as the MIC value.

Another assay has as its system C. neoformans. Put plainly: microbe, parasite or virus in culture. In kind it is cell-based, Cryptococcus neoformans (ATCC 32045).
Excerpt: as §1, §2

The subject of the next assay is MRSA. Put plainly: microbe, parasite or virus in culture. In kind it is cell-based.
Excerpt: as §1, §2

In another assay the test system is S. aureus. Put plainly: microbe, parasite or virus in culture. It counts as cell-based, Staphylococcus aureus (ATCC 6538).
Excerpt: as §1, §2

The next assay concerns E. coli. Put plainly: microbe, parasite or virus in culture. It counts as cell-based, Escherichia coli (ATCC 8739).
Excerpt: as §1, §2

The test system of a further assay is A. baumannii. Put plainly: microbe, parasite or virus in culture. It counts as cell-based, Acinetobacter baumannii (ATCC 1968).
Excerpt: as §1, §2

A further assay deals with P. aeruginosa. Put plainly: microbe, parasite or virus in culture. In kind it is cell-based, Pseudomonas aeruginosa (ATCC 27853).
Excerpt: as §1, §2

In a further assay the test system is C. neoformans ATCC 32045. Put plainly: Fungal-killing kinetics. It counts as cell-based, Cryptococcus neoformans. Conditions: positive control; concentration not stated in the sentence (1×, 5×, 10 × MIC tested). How it is done: The single colony of C. neoformans ATCC 32045 was selected and cultured at 180 rpm and 37 °C, washed three times with normal saline, and then resuspended, and the fungal solution was diluted to 1 × 10^6 CFU/mL with SDB medium. The positive control was fluconazole, and the negative control was normal saline. […] The fungal liquid after adding the sample was quickly put into the 37 °C constant temperature incubator, and the shaking culture was carried out at 180 rpm. […] The plate was placed in a constant temperature incubator for inverted culture for 72 h at 37 °C, and then the single colony on the plate was counted.

[1] abbreviates: Candida albicans, ATCC10231, ATCC 10231, double gradient dilution, 2 × 10^5 CFU/mL, OD 600 nm, mean of three independent experiments.
Where [2] appears, read: Cryptococcus neoformans, ATCC32045, ATCC 32045, double gradient dilution, 2 × 10^5 CFU/mL, 35 °C, OD 600 nm, mean of three independent experiments.

In the case of FIKKMLGNFSNYVRRPGKR [blap-9], the MIC against C. albicans was determined as 40.55 µM; in the assay with C. neoformans, 81.10 µM; in the assay on MRSA, 81.10 µM; with S. aureus, 81.10 µM; in the assay on E. coli, 81.10 µM; in the assay with A. baumannii it was 81.10 µM. The molecule also had an MIC in the assay with P. aeruginosa of 81.10 µM.
`OC(Cn1cncn1)(Cn1cncn1)c1ccc(F)cc1F` [Fluconazole, reference compound]: the MIC against C. albicans (setting [1]) amounted to 0.61 µM (≈ 0.187 µg/mL); with C. neoformans (setting [2]), 6.36 µM (≈ 1.95 µg/mL). Also, the “time required for fungicidal rate to reach more than 90%” value in the assay with C. neoformans ATCC 32045 was 360 min.
As to `C[C@@H]1[C@H](O)[C@@H](C)/C=C/C=C/C=C/C=C/C=C/C=C/C=C/[C@H](O[C@@H]2O[C@H](C)[C@@H](O)[C@H](N)[C@@H]2O)C[C@@H]2O[C@](O)(C[C@@H](O)C[C@@H](O)[C@H](O)CC[C@@H](O)C[C@@H](O)CC(=O)O[C@H]1C)C[C@H](O)[C@H]2C(=O)O` [Amphotericin B, reference compound], the MIC against C. albicans (setting [1]) and in the assay with C. neoformans (setting [2]) was 0.05 µM (≈ 0.0462 µg/mL) each time.
For the molecule RWKERKKWQKRWKRKKG [blap-8], the MIC is 19.53 µM in the assay on C. albicans; 19.53 µM against C. neoformans; 156.30 µM against MRSA; 156.3 µM with S. aureus; 312.50 µM against E. coli; 7.81 µM with P. aeruginosa.
On to RWNTSRWLRL [blap-10], for which the MIC was found to be 156.30 µM against C. albicans, 312.5 µM in the assay with C. neoformans, 19.54 µM in the assay with MRSA and 312.50 µM against P. aeruginosa.
Take KRALSLPKMREDRLLYRGRA [blap-7]: the MIC came out at 156.30 µM with C. albicans and 312.50 µM in the assay with C. neoformans.
Turning to `CC1(C)S[C@@H]2[C@H](NC(=O)[C@H](N)c3ccccc3)C(=O)N2[C@H]1C(=O)O` [Ampicillin, reference compound], the MIC was 126 µM (≈ 44.1 µg/mL) in the assay with MRSA (Staphylococcus aureus, clinical strain MRSA-Z, double gradient dilution, 2 × 10^5 CFU/mL, LB, 37 °C, OD 600 nm, mean of three independent experiments); 63.1 µM (≈ 22.1 µg/mL) against S. aureus (Staphylococcus aureus, ATCC6538, ATCC 6538, double gradient dilution, 2 × 10^5 CFU/mL, LB, 37 °C, OD 600 nm, mean of three independent experiments); 31.6 µM (≈ 11 µg/mL) against E. coli (Escherichia coli, ATCC8739, ATCC 8739, double gradient dilution, 2 × 10^5 CFU/mL, LB, 37 °C, OD 600 nm, mean of three independent experiments); 31.6 µM (≈ 11 µg/mL) against A. baumannii (Acinetobacter baumannii, ATCC1968, ATCC 1968, double gradient dilution, 2 × 10^5 CFU/mL, LB, 37 °C, OD 600 nm, mean of three independent experiments); 31.6 µM (≈ 11 µg/mL) in the assay with P. aeruginosa (Pseudomonas aeruginosa, ATCC27853, ATCC 27853, double gradient dilution, 2 × 10^5 CFU/mL, LB, 37 °C, OD 600 nm, mean of three independent experiments).
